Earlier results on one compound are cited in patent US20090317483A1, “Bicomponent Bioadhesive for Biomedical Use” (INSTITUTO OFTALMOLOGICO DE ALICANTE, S.L., priority 2004, published 2009).

For this data set the following is noted: in vivo.

For `C=C(C#N)C(=O)OCCCC` [butyl cyanoacrylate], the “closure of corneal perforations” value is “effective”.
